Experimental data taken from patent US20240148821A1, “PHARMACEUTICAL USE OF CYCLIC PEPTIDE COMPOUND” (CHUGAI SEIYAKU KABUSHIKI KAISHA, priority 2021, published 2024).
Numbered stars: 1 amine (or outer) side, 2 acyl side, 3 side chain; on linkers, the order of the positions; unused ones are H or OH. Bridge positions count the residues as written; N and C are the ends. Square brackets hold non-standard residues; d marks the D form. Peptide text beside a SMILES is read from it. * marks the point of attachment. hPhe(3-Cl-4-CF3) = N[C@@H](CCc1ccc(C(F)(F)F)c(Cl)c1)C(=O)O; NEtPhe(4-CF3) = CCN[C@@H](Cc1ccc(C(F)(F)F)cc1)C(=O)O; X15 = O=C([C@H](CCc1cc(Cl)c(Cl)c(Cl)c1)N[*:1])[*:2]; X1 = O=C([C@H](CCc1ccc(OC(F)F)c(F)c1)N[*:1])[*:2]; X116 = O=C([C@H](CCc1cccc(F)c1)N[*:1])[*:2]; NMedβ3hAla = C[C@H](CC(=O)[*:2])N(C)[*:1]; NMeGly(cPent) = CN[C@H](C(=O)O)C1CCCC1; Pro(4,4-F2) = O=C(O)[C@@H]1CC(F)(F)CN1; NMeCha = CN[C@@H](CC1CCCCC1)C(=O)O; NMehLeu = CN[C@@H](CCC(C)C)C(=O)O; NMeChg = CN[C@H](C(=O)O)C1CCCCC1; NMeF = CN[C@@H](Cc1ccccc1)C(=O)O; NMeE = CN[C@@H](CCC(=O)O)C(=O)O; NMeD = CN[C@@H](CC(=O)O)C(=O)O; NMeL = CN[C@@H](CC(C)C)C(=O)O; NMeNle = CCCC[C@H](NC)C(=O)O; NMeV = CN[C@H](C(=O)O)C(C)C; d(β3hA) = C[C@@H](N)CC(=O)O; Azetidin(1-yl) = C1CN(*)C1; Morpholide = C1CN(*)CCO1; NMeA = CN[C@@H](C)C(=O)O; Piperidide = C1CCN(*)CC1; Ac5c = NC1(C(=O)O)CCCC1; Aze = O=C(O)[C@@H]1CCN1; Ac4c = NC1(C(=O)O)CCC1; Sar = CNCC(=O)O

target: protein-protein interaction between Kras and SOS1 (biotin-tagged human Kras loaded with GDP, His-tagged human SOS1) (Homo sapiens (Human), UniProt P01116, G12D); experiment: Protein-protein interaction inhibition between Kras and SOS1 (KrasG12D-SOS PPI) using AlphaScreen; format: biochemical; conditions: AlphaScreen; biotin-tagged human Kras loaded with GDP, His-tagged human SOS1; read-out: KRAS G12D-SOS PPI IC50;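 further: kras produced in E. coli, Ni-coupled donor beads and streptavidin acceptor beads, excitation 680 nm with emission detected at 520–620 nm via singlet oxygen transfer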

Structure (SMILES) | IC50 [nM]
CC[C@H](C)[C@@H]1NC(=O)[C@H](CC(C)C)N(C)C(=O)C[C@@H](C)N(C)C(=O)[C@H](C2CCCC2)N(C)C(=O)C2(CCC2)NC(=O)[C@@H]2CC(F)(F)CN2C(=O)[C@H](CCc2ccc(C(F)(F)F)c(Cl)c2)NC(=O)CN(C)C(=O)[C@H](Cc2ccc(C(F)(F)F)cc2)N(CC)C(=O)[C@@H]2CCN2C(=O)[C@H](C)N(C)C1=O [Compound 949] (cyclo([Ac4c][NMeGly(cPent)][NMedβ3hAla][NMeL]I[NMeA][Aze][NEtPhe(4-CF3)][Sar][hPhe(3-Cl-4-CF3)][Pro(4,4-F2)])) | 1.3
CC[C@H](C)[C@@H]1NC(=O)[C@H](CCC(C)C)N(C)C(=O)C[C@@H](C(=O)N2CCCCC2)N(C)C(=O)[C@H](C(C)C)N(C)C(=O)C2(CCCC2)NC(=O)[C@@H]2CCCN2C(=O)[C@H](CCc2ccc(C(F)(F)F)c(Cl)c2)NC(=O)CN(C)C(=O)[C@H](CC2CCCCC2)N(C)C(=O)[C@@H]2CCN2C(=O)[C@H](C)N(C)C1=O [Compound 1833] ([NMehLeu]I[NMeA][Aze][NMeCha][Sar][hPhe(3-Cl-4-CF3)]P[Ac5c][NMeV][NMeD]-Piperidide; lactam N-11) | 7.5
CC[C@H](C)[C@@H]1NC(=O)[C@H](CC(C)C)N(C)C(=O)C[C@@H](C(=O)N2CCCCC2)N(C)C(=O)[C@H](C2CCCC2)N(C)C(=O)C2(CCCC2)NC(=O)[C@@H]2CCCN2C(=O)[C@H](CCc2ccc(OC(F)F)c(F)c2)NC(=O)CN(C)C(=O)[C@H](CC2CCCCC2)N(C)C(=O)[C@@H]2CCN2C(=O)[C@H](C)N(C)C1=O [Compound 2076] ([NMeL]I[NMeA][Aze][NMeCha][Sar][X1]P[Ac5c][NMeGly(cPent)][NMeD]-Piperidide; lactam N-11 (inferred); C-terminus assumed) | 2.5
CC[C@H](C)[C@@H]1NC(=O)[C@H](CC(C)C)N(C)C(=O)C[C@@H](C(=O)N2CCOCC2)N(C)C(=O)[C@H](C2CCCC2)N(C)C(=O)C2(CCCC2)NC(=O)[C@H](CCC(=O)N2CCC2)N(C)C(=O)[C@H](CCc2ccc(C(F)(F)F)c(Cl)c2)NC(=O)CN(C)C(=O)[C@H](CC2CCCCC2)N(C)C(=O)[C@@H]2CCN2C(=O)[C@H](C)N(C)C1=O [Compound 2103] ([NMeL]I[NMeA][Aze][NMeCha][Sar][hPhe(3-Cl-4-CF3)][NMeE](Azetidin(1-yl))[Ac5c][NMeGly(cPent)][NMeD]-Morpholide; lactam N-11) | 8.3
CC[C@H](C)[C@@H]1NC(=O)[C@H](C)N(C)C(=O)C[C@@H](C(=O)N2CCCCC2)N(C)C(=O)[C@H](C2CCCCC2)N(C)C(=O)C2(CCCC2)NC(=O)[C@@H]2CCCN2C(=O)[C@H](CCc2cc(Cl)c(Cl)c(Cl)c2)NC(=O)CN(C)C(=O)[C@H](CC2CCCCC2)N(C)C(=O)CN(C)C(=O)CN(C)C1=O [Compound 2059, (3S,9S,18S,21S,25S,28S,34S)-28-cyclohexyl-9-(cyclohexylmethyl)-7,10,13,16,21,22,26,29-octamethyl-18-[(1S)-1-methylpropyl]-25-(piperidine-1-carbonyl)-3-[2-(3,4,5-trichlorophenyl)ethyl]spiro[1,4,7,10,13,16,19,22,26,29,32-undecazabicyclo[32.3.0]heptatriacontane-31,1′-cyclopentane]-2,5,8,11,14,17,20,23,27,30,33-undecone] ([NMeA]I[Sar][Sar][NMeCha][Sar][X15]P[Ac5c][NMeChg][NMeD]-Piperidide; lactam N-11) | 0.96
CC[C@H](C)[C@@H]1NC(=O)[C@H](CC(C)C)N(C)C(=O)C[C@@H](C(=O)N2CCCCC2)N(C)C(=O)[C@H](C(C)C)N(C)C(=O)C2(CCCC2)NC(=O)[C@@H]2CCCN2C(=O)[C@H](CCc2ccc(C(F)(F)F)c(Cl)c2)NC(=O)CN(C)C(=O)[C@H](CC2CCCCC2)N(C)C(=O)[C@@H]2CCN2C(=O)[C@H](Cc2ccccc2)N(C)C1=O [Compound 1561] ([NMeL]I[NMeF][Aze][NMeCha][Sar][hPhe(3-Cl-4-CF3)]P[Ac5c][NMeV][NMeD]-Piperidide; lactam N-11) | 33
CCCC[C@H]1C(=O)N[C@@H]([C@@H](C)CC)C(=O)N(C)[C@@H](C)C(=O)N2CC[C@H]2C(=O)N(C)[C@@H](CC2CCCCC2)C(=O)N(C)CC(=O)N[C@@H](CCc2ccc(C(F)(F)F)c(Cl)c2)C(=O)N2CCC[C@H]2C(=O)NC2(CCCC2)C(=O)N(C)[C@@H](C(C)C)C(=O)N[C@H](C)CC(=O)N1C [Compound 1568] (cyclo([Ac5c][NMeV][d(β3hA)][NMeNle]I[NMeA][Aze][NMeCha][Sar][hPhe(3-Cl-4-CF3)]P)) | 94
CC[C@H](C)[C@@H]1NC(=O)[C@H](C2CCCCC2)N(C)C(=O)C[C@@H](C)NC(=O)[C@H](C(C)C)N(C)C(=O)C2(CCCC2)NC(=O)[C@@H]2CCCN2C(=O)[C@H](CCc2ccc(C(F)(F)F)c(Cl)c2)NC(=O)CN(C)C(=O)[C@H](CC2CCCCC2)N(C)C(=O)[C@@H]2CCN2C(=O)[C@H](C)N(C)C1=O [Compound 873] (cyclo([Ac5c][NMeV][d(β3hA)][NMeChg]I[NMeA][Aze][NMeCha][Sar][hPhe(3-Cl-4-CF3)]P)) | 51
CC[C@H](C)[C@@H]1NC(=O)[C@H](C)N(C)C(=O)C[C@@H](C(=O)N2CCCCC2)N(C)C(=O)[C@H](C(C)C)N(C)C(=O)C2(CCCC2)NC(=O)[C@@H]2CCCN2C(=O)[C@H](CCc2cccc(F)c2)NC(=O)CN(C)C(=O)[C@H](CC2CCCCC2)N(C)C(=O)[C@@H]2CCN2C(=O)[C@H](C)N(C)C1=O [Compound 685] ([NMeA]I[NMeA][Aze][NMeCha][Sar][X116]P[Ac5c][NMeV][NMeD]-Piperidide; lactam N-11) | 130
